{"source": "BindingDB's records for doi:10.7270/Q2B56H72", "about": "(Nmmlsc, 2011)", "target": "T1, Beta-adrenergic receptor kinase 1 (Homo sapiens, UniProt P25098)", "T1 sequence (P25098 whole entry)": "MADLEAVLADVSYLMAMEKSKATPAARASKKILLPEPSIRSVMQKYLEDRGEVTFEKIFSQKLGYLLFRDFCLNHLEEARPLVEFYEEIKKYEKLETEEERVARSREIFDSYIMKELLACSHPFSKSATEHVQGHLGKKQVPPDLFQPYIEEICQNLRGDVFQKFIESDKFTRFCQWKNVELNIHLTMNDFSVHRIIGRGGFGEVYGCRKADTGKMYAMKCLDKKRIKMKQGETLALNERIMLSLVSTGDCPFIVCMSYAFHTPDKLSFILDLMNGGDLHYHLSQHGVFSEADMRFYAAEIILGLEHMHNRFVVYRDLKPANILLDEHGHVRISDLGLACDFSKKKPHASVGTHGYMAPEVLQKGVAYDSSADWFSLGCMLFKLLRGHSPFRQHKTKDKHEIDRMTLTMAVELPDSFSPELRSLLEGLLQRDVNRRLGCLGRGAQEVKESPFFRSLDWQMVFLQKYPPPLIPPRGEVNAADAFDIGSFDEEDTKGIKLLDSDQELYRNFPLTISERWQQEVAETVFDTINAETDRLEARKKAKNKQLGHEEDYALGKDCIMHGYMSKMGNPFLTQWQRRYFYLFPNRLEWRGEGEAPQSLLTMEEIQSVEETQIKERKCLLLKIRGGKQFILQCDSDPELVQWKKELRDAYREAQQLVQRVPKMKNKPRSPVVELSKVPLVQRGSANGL", "assay": "aptamer displacement from bead-bound GRK2 – biochemical, cherry pick 1, bead flow cytometry, dose response (AID 504500)"}
{"smiles": "C=c1[nH]n(-c2cccc(C(=O)O)c2)c(=O)c1=CC=Cc1ccco1", "note": "[SMR000113614]", "values": [{"measurement": "EC50", "result": 14.8, "unit": "µM"}]}
